Like-named read-outs stand apart in the source and are kept apart here.
Target: T1, CYP3A4 (Homo sapiens, UniProt P08684)
T1 construct: Pooled (n≧15 donors) human hepatic microsomal fraction was obtained from BD-Gentest; tissue BD-Gentest (Woburn, Mass.); host or cells: pooled human liver microsomes (n≧15 donors)
Test: CYP3A inhibition assay in pooled human hepatic microsomal fraction (midazolam 1-hydroxylase and testosterone 6β-hydroxylase activities)
Type: biochemical
Details: human hepatic microsomes
Description: The initial mobile phase consisted of 94.9% water, 0.1% formic acid, and 5% acetonitrile (v/v/v) pumped at 0.5 mL/min. After 0.5 min the acetonitrile concentration was increased to 30% over 0.5 min. The acetonitrile concentration was then further increased to 100% over 0.5 min and held for 1.3 min, after which the column was re equilibrated at the initial conditions for 1.2 min. Rates of metabolite formation were determined from standard curves using PAR determined with authentic metabolite standards.

[1] = probe activity midazolam 1-hydroxylase, read-out: CYP3A4 IC50 (μM) (midazolam)
[2] = probe activity testosterone 6β-hydroxylase, substrate 50 μM, read-out: CYP3A4 IC50 (μM) (testosterone)

T1 sequence (P08684 2-503): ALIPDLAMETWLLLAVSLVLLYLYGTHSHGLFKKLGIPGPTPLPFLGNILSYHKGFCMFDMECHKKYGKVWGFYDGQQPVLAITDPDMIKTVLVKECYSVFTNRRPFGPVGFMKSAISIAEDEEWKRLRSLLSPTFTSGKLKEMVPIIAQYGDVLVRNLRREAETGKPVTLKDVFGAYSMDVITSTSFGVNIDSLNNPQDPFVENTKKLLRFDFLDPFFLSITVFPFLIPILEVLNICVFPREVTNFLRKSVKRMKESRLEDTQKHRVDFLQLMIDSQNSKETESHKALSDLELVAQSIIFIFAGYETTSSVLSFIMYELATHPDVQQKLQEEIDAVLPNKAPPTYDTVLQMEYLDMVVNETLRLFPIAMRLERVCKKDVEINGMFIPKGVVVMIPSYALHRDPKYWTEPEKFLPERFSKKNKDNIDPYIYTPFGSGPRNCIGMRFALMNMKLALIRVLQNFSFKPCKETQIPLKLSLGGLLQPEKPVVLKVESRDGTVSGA

| Compound | IC50 [1] [µM] | IC50 [2] [µM] |
| --- | --- | --- |
| C[C@H]1CC[C@H](C(=O)N[C@H](CC[C@H](Cc2ccccc2)NC(=O)OCc2cncs2)Cc2ccccc2)CC1 [Compound 3] | 0.12 | 0.27 |
| CC(C)[C@H]1CC[C@H](C(=O)N[C@H](CC[C@H](Cc2ccccc2)NC(=O)OCc2cncs2)Cc2ccccc2)CC1 [Compound 4] | < 0.1 | 3.4 |
| O=C(N[C@H](CC[C@H](Cc1ccccc1)NC(=O)[C@H]1CC[C@H](c2ccc(Cl)cc2)CC1)Cc1ccccc1)OCc1cncs1 [Compound 5] | 1.8 | > 25 |
| CC[C@@H](C(=O)N[C@H](CC[C@H](Cc1ccccc1)NC(=O)OCc1cncs1)Cc1ccccc1)c1ccccc1 [Compound 6] | 0.51 | 1.4 |
| CC[C@H](C)C(=O)N[C@H](CC[C@H](Cc1ccccc1)NC(=O)OCc1cncs1)Cc1ccccc1 [Compound 7] | < 0.1 | 0.36 |
| CC(C)OC(=O)N[C@H](CC[C@H](Cc1ccccc1)NC(=O)OCc1cncs1)Cc1ccccc1 [Compound 8] | < 0.1 | 0.38 |
| CCC(C)OC(=O)N[C@H](CC[C@H](Cc1ccccc1)NC(=O)OCc1cncs1)Cc1ccccc1 (some centres unmarked) [Compound 9] | 0.13 | 0.43 |
| CCC(CC)OC(=O)N[C@H](CC[C@H](Cc1ccccc1)NC(=O)OCc1cncs1)Cc1ccccc1 [Compound 10] | 0.2 | 0.5 |
| CC(C)CC(C)OC(=O)N[C@H](CC[C@H](Cc1ccccc1)NC(=O)OCc1cncs1)Cc1ccccc1 (some centres unmarked) [Compound 11] | 0.25 | 0.71 |
| CC(C)CC(OC(=O)N[C@H](CC[C@H](Cc1ccccc1)NC(=O)OCc1cncs1)Cc1ccccc1)C(C)C (some centres unmarked) [Compound 12] | 0.38 | 0.4 |
| CC(CC(C)(C)C)OC(=O)N[C@H](CC[C@H](Cc1ccccc1)NC(=O)OCc1cncs1)Cc1ccccc1 (some centres unmarked) [Compound 13] | 0.4 | 0.54 |
| CC(C)NC(=O)N[C@H](CC[C@H](Cc1ccccc1)NC(=O)OCc1cncs1)Cc1ccccc1 [Compound 14] | < 0.1 | 0.27 |
| CCC(C)NC(=O)N[C@H](CC[C@H](Cc1ccccc1)NC(=O)OCc1cncs1)Cc1ccccc1 (some centres unmarked) [Compound 15] | < 0.1 | 0.25 |
| CCC(CC)NC(=O)N[C@H](CC[C@H](Cc1ccccc1)NC(=O)OCc1cncs1)Cc1ccccc1 [Compound 16] | < 0.1 | 0.41 |
| CC(C)S(=O)(=O)N[C@H](CC[C@H](Cc1ccccc1)NC(=O)OCc1cncs1)Cc1ccccc1 [Compound 17] | < 0.1 | 0.32 |
| CCC(C)S(=O)(=O)N[C@H](CC[C@H](Cc1ccccc1)NC(=O)OCc1cncs1)Cc1ccccc1 (some centres unmarked) [Compound 18] | < 0.1 | 0.34 |

From patent US20130280212A1, “INHIBITORS OF CYTOCHROME P450” (GILEAD SCIENCES, INC, priority 2010, published 2013)
